Values joined by “and” are separate entries in the source; they are usually repeats but may differ in a detail not shown here. Equal entries are not always repeated. Where two headings read alike, the source gives them in different places.
What was measured:
[1] = molecular target: T1, wild type human 5HT2A receptor (Homo sapiens, UniProt P28223); assay: Competitive binding assay, [3H]LSD, WT 5HT2A; conditions: for difference in selectivity preference (IC50 values) for the 5HT2A receptor compared with the 5HT2C receptor: 5HT2A versus 5HT2C
T1 construct: expressed in transfected cells; host or cells: COS-7 cells, pCMV vector
T1 sequence (P28223 whole entry T25N/H452Y): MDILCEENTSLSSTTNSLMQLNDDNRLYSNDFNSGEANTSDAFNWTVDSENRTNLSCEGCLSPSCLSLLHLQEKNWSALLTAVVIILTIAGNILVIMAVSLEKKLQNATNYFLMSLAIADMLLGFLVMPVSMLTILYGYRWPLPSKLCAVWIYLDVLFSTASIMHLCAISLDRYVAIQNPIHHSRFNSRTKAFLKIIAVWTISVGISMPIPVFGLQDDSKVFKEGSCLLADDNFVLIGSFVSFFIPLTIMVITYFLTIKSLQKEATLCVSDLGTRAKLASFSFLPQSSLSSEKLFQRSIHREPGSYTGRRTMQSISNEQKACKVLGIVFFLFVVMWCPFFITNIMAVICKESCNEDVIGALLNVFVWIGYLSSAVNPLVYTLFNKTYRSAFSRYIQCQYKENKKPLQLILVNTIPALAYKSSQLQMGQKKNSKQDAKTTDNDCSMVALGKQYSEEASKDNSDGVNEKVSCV

[2] = molecular target: T2, human mutated 5HT2A receptor, AP-3 (Homo sapiens, UniProt P28223, T25N); assay: Inositol phosphate accumulation assay, AP-3; assay type: cell-based; conditions: for remaining activity at 10 µM: read-out: IP3 % of Control;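 as to all read-outs here: transfected 293 cells prelabeled with 3H-inositol, exposed to compound 120 min at 37 °C with LiCl and pargyline, inositol trisphosphates isolated by anion exchange and counted by scintillation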
T2 construct: Inositol Phosphate Accumulation AP-3 IC50 Value (nM); other: several concentrations; IP3 % of Control; other: one concentration of 10 μM, triplicate; control without test compound
T2 sequence (P28223 whole entry T25N, looked up): as the sequence (P28223 whole entry T25N/H452Y) above, with Y452H counted along it

[3] = competitive binding using LSD, read-out: WT 5HT2A LSD IC50
[4] = several concentrations, read-out: IP3 AP-3 IC50
[5] = one concentration of 10 μM, triplicate, control without test compound

| SMILES | IC50 [1, 3] [µM] | IC50 [2, 4] [µM] | also measured |
| --- | --- | --- | --- |
| COc1cccc(CC(=O)Nc2cccc(-c3nn(C)cc3Br)c2)c1 [Compound 116175, N-[3-(4-bromo-1-methylpyrazol-3-yl)phenyl]-2-(3-methoxyphenyl)acetamide] | 0.625 | 0.108 | – |
| CC(C)c1ccc(NC(=O)Nc2cccc(-c3nn(C)cc3Br)c2)cc1 [Compound 116110, {[3-(4-bromo-1-methylpyrazol-3-yl)phenyl]amino}-N-[4-(methylethyl)phenyl]carboxamide] | 0.338 | – | IP3 % of Control [2, 5]: 7% |
| Cc1c(Cl)cc(NC(=O)Nc2cccc(-c3nn(C)cc3Br)c2)cc1Cl [Compound 116138, N-(3,5-dichloro-4-methylphenyl){[3-(4-bromo-1-methylpyrazol-3-yl)phenyl]amino}carboxamide] | 0.122 | – | remaining activity at 10 µM [2, 5]: 23% |
| Cn1cc(Br)c(-c2cccc(NC(=O)Nc3ccccc3C#N)c2)n1 [Compound 116148, {[3-(4-bromo-1-methylpyrazol-3-yl)phenyl]-amino}-N-(2-cyanophenyl)carboxamide] | 0.348 | – | remaining activity at 10 µM [2, 5]: 30% |
| CSc1ccc(NC(=O)Nc2cccc(-c3nn(C)cc3Br)c2)cc1 [Compound 116079, N-[3-(4-bromo-1-methylpyrazol-3-yl)phenyl][(4-methylthiophenyl)amino]carboxamide] | 0.004 | 0.017 | remaining activity at 10 µM [2]: 16% |
| Cn1cc(Br)c(-c2cccc(NC(=O)Nc3ccc(C(C)(C)C)cc3)c2)n1 [Compound 116119, N-[4-(tert-butyl)phenyl]{[3-(4-bromo-1-methylpyrazol-3-yl)phenyl]amino}carboxamide] | 0.476 | – | remaining activity at 10 µM [2, 5]: 17% |
| Cn1cc(Br)c(-c2cccc(NC(=O)Cc3ccc(OC(F)(F)F)cc3)c2)n1 [Compound 116137, N-[3-(4-bromo-1-methylpyrazol-3-yl)phenyl]-2-[4-(trifluoromethoxy)-phenyl]acetamide] | 0.106 | – | – |
| COc1ccc(CNC(=O)Nc2cccc(-c3nn(C)cc3Br)c2)cc1 [Compound 116189, N-[3-(4-bromo-1-methylpyrazol-3-yl)phenyl][{(4-methoxyphenyl)methyl}amino]carboxamide] | 0.102 | – | – |
| Cn1cc(Br)c(-c2cccc(NC(=O)Nc3ccc(C#N)cc3)c2)n1 [Compound 116147, {[3-(4-bromo-1-methylpyrazol-3-yl)phenyl]-amino}-N-(4-cyanophenyl)carboxamide] | 0.002 | – | remaining activity at 10 µM [2]: 12% |
| Cn1cc(Br)c(-c2cccc(NC(=O)Nc3ccc(F)cc3)c2)n1 [Compound 116082, {[3-(4-bromo-1-methylpyrazol-3-yl)phenyl]-amino}-N-(4-fluorophenyl)carboxamide] | 0.007 | – | difference in selectivity preference (IC50 values) for the 5HT2A receptor compared with the 5HT2C receptor [1]: 100 fold; remaining activity at 10 µM [2]: 11% |
| Cn1cc(Br)c(-c2cccc(NC(=O)OC(C)(C)C)c2)n1 [Compound 116192] | – | – | IC50 [1]: 0.014 µM; IC50 ([2]; Inositol Phosphate Accumulation AP-3 IC50 Value (μM)): 0.057 µM |
| COc1ccc(CCNC(=O)Nc2cccc(-c3nn(C)cc3Br)c2)cc1 [Compound 116194, N-[3-(4-bromo-1-methylpyrazol-3-yl)phenyl][{2-(4-methoxyphenyl)ethyl}amino]carboxamide] | 0.061 | 0.032 | – |
| Cn1cc(Br)c(-c2cccc(NC(=O)Nc3ccc(OC(F)(F)F)cc3)c2)n1 [Compound 103487, N-[3-(4-bromo-1-methylpyrazol-3-yl)phenyl][{(4-trifluoromethoxy)phenyl}amino]carboxamide] | – | – | IC50 ([1]; 1 nM [3H]LSD, COS7 membranes, read-out: Competitive Binding WT 5HT2A ([3H]LSD) IC50 Value): 0.046 µM; IC50 ([2]; read-out: Inositol Phosphate Accumulation AP-3 IC50 Value): 0.052 µM and 0.09 µM |
| Cc1cccc(NC(=O)Nc2cccc(-c3nn(C)cc3Br)c2)c1 [Compound 116112, [{3-(4-bromo-1-methylpyrazol-3-yl)phenyl}-amino]-N-(3-methylphenyl)carboxamide] | 0.057 | – | remaining activity at 10 µM [2]: 14% |
| Cn1cc(Br)c(-c2cccc(NC(=O)Nc3cccc(Cl)c3)c2)n1 [Compound 116105, {[3-(4-bromo-1-methylpyrazol-3-yl)phenyl]-amino}-N-(3-chlorophenyl)carboxamide] | 0.039 | – | remaining activity at 10 µM [2]: 11% |
| COc1cc(CNC(=O)Nc2cccc(-c3nn(C)cc3Br)c2)cc(OC)c1OC [Compound 116184, N-[3-(4-bromo-1-methylpyrazol-3-yl)phenyl]-[{(3,4,5-trimethoxyphenyl)methyl}amino]-carboxamide] | 2.96 | – | – |
| Cc1ccccc1NC(=O)Nc1cccc(-c2nn(C)cc2Br)c1 [Compound 116092, {[3-(4-bromo-1-methylpyrazol-3-yl)phenyl]amino}-N-(2-methylphenyl)carboxamide] | 0.131 | – | remaining activity at 10 µM [2, 5]: 32% |
| COc1ccc(NC(=O)Nc2cccc(-c3nn(C)cc3Br)c2)cc1 [Compound 116091, {[3-(4-bromo-1-methylpyrazol-3-yl)phenyl]-amino}-N-(4-methoxyphenyl)carboxamide] | 0.019 | – | remaining activity at 10 µM [2]: 12% |

| SMILES | IC50 [1, 3] [µM] | IC50 [2, 4] [µM] | also measured |
| --- | --- | --- | --- |
| Cn1cc(Br)c(-c2cccc(NC(=O)Nc3ccccc3F)c2)n1 [Compound 116144, {[3-(4-bromo-1-methylpyrazol-3-yl)phenyl]-amino}-N-(2-fluorophenyl)carboxamide] | 0.037 | – | remaining activity at 10 µM [2]: 12% |
| Cn1cc(Br)c(-c2cccc(NC(=O)Nc3ccccc3[N+](=O)[O-])c2)n1 [Compound 116089, {[3-(4-bromo-1-methylpyrazol-3-yl)phenyl]-amino}-N-(2-nitrophenyl)carboxamide] | 0.238 | – | remaining activity at 10 µM [2, 5]: 27% |
| Cn1cc(Br)c(-c2cccc(NC(=O)Nc3ccccc3OC(F)(F)F)c2)n1 [Compound 116087, {[3-(4-bromo-1-methylpyrazol-3-yl)phenyl]-amino}-N-[2-(trifluoromethoxy)phenyl]carboxamide] | 0.2 | – | remaining activity at 10 µM [2, 5]: 11% |
| Cn1cc(Br)c(-c2cccc(NC(=O)NCc3ccc(F)cc3)c2)n1 [Compound 116182, N-[3-(4-bromo-1-methylpyrazol-3-yl)phenyl]-[{(4-fluorophenyl)methyl}amino]carboxamide] | 0.132 | 0.089 | – |
| COc1ccc(CNC(=O)Nc2cccc(-c3nn(C)cc3Br)c2)cc1OC [Compound 116183, N-[3-(4-bromo-1-methylpyrazol-3-yl)phenyl]-[{(3,4-dimethoxyphenyl)methyl}amino-]carboxamide] | 1.01 | – | – |
| Cn1cc(Br)c(-c2cccc(NC(=O)Cc3cccc(F)c3)c2)n1 [Compound 116174, N-[3-(4-bromo-1-methylpyrazol-3-yl)phenyl]-2-(3-fluorophenyl)acetamide] | 0.318 | 0.153 | – |
| COc1ccccc1CC(=O)Nc1cccc(-c2nn(C)cc2Br)c1 [Compound 116178, N-[3-(4-bromo-1-methylpyrazol-3-yl)phenyl]-2-(2-methoxyphenyl)acetamide] | 2.3 | 0.165 | – |
| Cn1cc(Br)c(-c2cccc(NC(=O)NC3CCCCC3)c2)n1 [Compound 116141, N-[3-(4-bromo-1-methylpyrazol-3-yl)phenyl]-[cyclohexylamino]carboxamide] | 0.081 | 0.114 | – |
| COc1cccc(NC(=O)Nc2cccc(-c3nn(C)cc3Br)c2)c1 [Compound 116111, {[3-(4-bromo-1-methylpyrazol-3-yl)phenyl]-amino}-N-(3-methoxyphenyl)carboxamide] | 0.106 | – | remaining activity at 10 µM [2, 5]: 7% |
| Cn1cc(Br)c(-c2cccc(NC(=O)NCc3ccccc3)c2)n1 [Compound 116143, N-[3-(4-bromo-1-methylpyrazol-3-yl)phenyl]-[phenylmethylamino]carboxamide] | 0.047 | 0.12 | – |
| Cn1cc(Br)c(-c2cccc(NC(=O)Nc3ccccc3Cl)c2)n1 [Compound 116108, {[3-(4-bromo-1-methylpyrazol-3-yl)phenyl]-amino}-N-[2-chlorophenyl)carboxamide] | 0.249 | – | remaining activity at 10 µM [2, 5]: 6% |
| Cc1ccccc1CNC(=O)Nc1cccc(-c2nn(C)cc2Br)c1 [Compound 116185, N-[3-(4-bromo-1-methylpyrazol-3-yl)phenyl][{(2-methylphenyl)methyl}amino]carboxamide] | 0.769 | – | – |
| Cn1cc(Br)c(-c2cccc(NC(=O)Nc3ccc(C(F)(F)F)cc3)c2)n1 [Compound 116097, {[3-(4-bromo-1-methylpyrazol-3-yl)phenyl]-amino}-N-[4-(trifluoromethyl)phenyl]carboxamide] | 0.065 | – | remaining activity at 10 µM [2]: 11% |
| Cn1cc(Br)c(-c2cccc(NC(=O)Nc3ccc(Cl)cc3)c2)n1 [Compound 116081, N-[3-(4-bromo-1-methylpyrazol-3-yl)phenyl][(4-chlorophenyl)amino]carboxamide] | 0.011 | 0.0032 | difference in selectivity preference (IC50 values) for the 5HT2A receptor compared with the 5HT2C receptor [1]: 100 fold; remaining activity at 10 µM [2]: 10% |
| CN(C(=O)Nc1cccc(-c2nn(C)cc2Br)c1)c1ccc(OC(F)(F)F)cc1 [Compound 116113, [{3-(4-bromo-1-methylpyrazol-3-yl)phenyl}-amino]-N-methyl-N-[4-(trifluoromethoxy)phenyl]carboxamide] | 0.002 | 0.193 | – |
| Cn1cc(Br)c(-c2cccc(NC(=O)Nc3ccccc3C(N)=O)c2)n1 [Compound 116145, 2-({[3-(4-bromo-1-methylpyrazol-3-yl)phenyl]-amino}carbonylamino)benzamide] | 7.47 | – | remaining activity at 10 µM [2, 5]: 31% |
| Cn1cc(Br)c(-c2cccc(NC(=O)Cc3ccccc3F)c2)n1 [Compound 116176, N-[3-(4-bromo-1-methylpyrazol-3-yl)phenyl]-2-(2-fluorophenyl)acetamide] | 0.662 | 0.129 | – |

Reference: patent publication US7754866B2 (Arena Pharmaceuticals, Inc., priority 1997, dated 2010)
